28 molecules from patent US9546157B2, “Asymmetric piperidinyl-substituted ureas as medicines” (Helsinn Healthcare SA, priority 2014, dated 2017) can be followed below.

A word on the EC50: it is the concentration that produces a half-maximal response. What is called IC50 is the concentration at which inhibition is half-maximal.

The nature of data set [1]: Metabolic Stability (M = Mouse). It is filed as in vitro ADME.
The target of data set [2] is T1, GHSR1a (Homo sapiens, UniProt Q92847).
T1 construct: expressed in transfected cells; host or cells: HEK293
Kind of data set: Calcium FLIPR assay, GHSR-1a agonism. It is filed as cell-based. Also noted: Emax: unit not given here. To be noted: HEK293/GHSR1a cells. In a few lines:
(§1)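 Calcium flux measured by FLIPR in GHSR1a-expressing HEK293 cells after 30-60 min dye preloading. Compound was added at t=20 sec, alone for agonism or with ghrelin (10 nM) for antagonism, and fluorescence recorded for 2 minutes. EC50 and IC50 were estimated from dose-response data.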

The target of data set [3] is T1, GHSR1a. Kind of data set: Calcium FLIPR assay, GHSR-1a antagonism (reduction of ghrelin response). It is filed as cell-based. To be noted: HEK293/GHSR1a cells, ghrelin 10 nM. The method in brief:
as §1

Data set [4] in a line: Metabolic Stability (H = Human). It is filed as in vitro ADME.

T1 sequence (Q92847 whole entry): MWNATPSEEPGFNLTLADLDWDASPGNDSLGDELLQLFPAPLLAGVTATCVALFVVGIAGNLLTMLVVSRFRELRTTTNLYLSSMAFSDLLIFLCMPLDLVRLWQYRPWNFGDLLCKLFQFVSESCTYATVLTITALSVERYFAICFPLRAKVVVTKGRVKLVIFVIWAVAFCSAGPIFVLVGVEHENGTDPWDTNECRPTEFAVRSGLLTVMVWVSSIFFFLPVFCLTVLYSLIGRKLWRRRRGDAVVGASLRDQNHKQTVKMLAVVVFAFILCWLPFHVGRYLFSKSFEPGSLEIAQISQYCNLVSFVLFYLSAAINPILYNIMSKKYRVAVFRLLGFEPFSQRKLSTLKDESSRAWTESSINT

Take `CC(NC(=O)N(C)C1CCN(C)CC1)c1ccc(-c2cnn(C)c2)c(Cl)c1Cl` (stereo not shown) [Compound H0501, 3-(1-(2,3-dichloro-4-(1-methyl-1H-pyrazol-4-yl)phenyl)ethyl)-1-methyl-1-(1-methylpiperidin-4-yl)urea]: the “Metabolic Stability M” value in data set [1] is recorded as “High H High M”. Further, at GHSR1a [2], the EC50 turned out to be 22 nM. For the same molecule, the half-inhibitory concentration (IC50) at GHSR1a [3] is 13 nM. Further, in data set [4], the “Metabolic Stability H” value is reported as “High H High M”.
As to `CCCN(C(=O)NC(C)c1ccc(-c2cnccn2)c(Cl)c1Cl)C1CCN(C)CC1` (stereo not shown) [Compound H0827, 3-(1-(2,3-dichloro-4-(pyrazin-2-yl)phenyl)ethyl)-1-(1-methylpiperidin-4-yl)-1-propylurea], at GHSR1a [2], the EC50 is above 30000 nM. For the same molecule, on GHSR1a [3], the IC50 is 35 nM.
In the case of `CC(NC(=O)N(C)C1CCN(C)CC1)c1ccc(-c2cnc3ccccc3n2)c(Cl)c1Cl` (stereo not shown) [Compound H0828, 3-(1-(2,3-dichloro-4-(quinoxalin-2-yl)phenyl)ethyl)-1-methyl-1-(1-methylpiperidin-4-yl)urea], the EC50 at GHSR1a [2] was above 30000 nM. Also, on GHSR1a [3], the 50% inhibitory concentration (IC50) was 376 nM.
Turning to `Cc1nccnc1-c1ccc(C(C)NC(=O)N(C)C2CCN(C)CC2)c(Cl)c1Cl` (stereo not shown) [Compound H0831, 3-(1-(2,3-dichloro-4-(3-methylpyrazin-2-yl)phenyl)ethyl)-1-methyl-1-(1-methylpiperidin-4-yl)urea], the EC50 on GHSR1a [2] is above 30000 nM. For the same molecule, at GHSR1a [3], the IC50 is 1200 nM.
The matching figures for `CC#Cc1ccc(C(C)NC(=O)N(C)C2CCN(C)CC2)c(Cl)c1Cl` (stereo not shown) [Compound H0832, 3-(1-(2,3-dichloro-4-(prop-1-yn-1-yl)phenyl)ethyl)-1-methyl-1-(1-methylpiperidin-4-yl)urea]: above 30000 nM and 11 nM.
For the molecule `CC(NC(=O)N(C)C1CCN(C)CC1)c1ccc(-c2cnn(C3CC3)c2)c(Cl)c1Cl` (stereo not shown) [Compound H0842, 3-(1-(2,3-dichloro-4-(1-cyclopropyl-1H-pyrazol-4-yl)phenyl)ethyl)-1-methyl-1-(1-methylpiperidin-4-yl)urea], on GHSR1a [2], the concentration for a half-maximal effect (EC50) came out at 67 nM and the Emax was 1411. The IC50 on GHSR1a [3] turned out to be 64 nM.
Consider `Cc1nccnc1-c1ccc(C(C)NC(=O)N(C)[C@@H]2CCN(C)CC2(C)C)c(Cl)c1Cl` (stereo partly drawn) [Compound H0843, 3-(1-(2,3-dichloro-4-(3-methylpyrazin-2-yl)phenyl)ethyl)-1-methyl-1-((R)-1,3,3-trimethylpiperidin-4-yl)urea], for which, on GHSR1a [2], the EC50 is 51 nM and the Emax came to 1910. Also, at GHSR1a [3], the IC50 was found to be 35 nM.
Take `Cc1nccnc1-c1ccc(C(CC2CC2)NC(=O)N(C)C2CCN(C)CC2)c(Cl)c1Cl` (stereo not shown) [Compound H0844, 3-(2-cyclopropyl-1-(2,3-dichloro-4-(3-methylpyrazin-2-yl)phenyl)ethyl)-1-methyl-1-(1-methylpiperidin-4-yl)urea]: the EC50 at GHSR1a [2] is above 30000 nM. Moreover, the IC50 on GHSR1a [3] turned out to be 705 nM.
On to `CC(NC(=O)N(C)C1CCN(C)CC1)c1ccc(NC2CC2)c(Cl)c1Cl` (stereo not shown) [Compound H0846, 3-(1-(2,3-dichloro-4-(cyclopropylamino)phenyl)ethyl)-1-methyl-1-(1-methylpiperidin-4-yl)urea], for which, at GHSR1a [2], the EC50 was determined as 130 nM and the Emax is 3815. Further, the IC50 on GHSR1a [3] turned out to be 170 nM.
On to `CC(NC(=O)N(C)C1CCN(C)CC1)c1ccc(-c2ccc(C3CC3)cn2)c(Cl)c1Cl` (stereo not shown) [Compound H0849, 3-(1-(2,3-dichloro-4-(5-cyclopropylpyridin-2-yl)phenyl)ethyl)-1-methyl-1-(1-methylpiperidin-4-yl)urea], for which, at GHSR1a [2], the EC50 is 51 nM and the Emax came out at 1383. Moreover, on GHSR1a [3], the IC50 worked out at 37 nM.
For the molecule `CC(NC(=O)N(C)C1CCN(C)CC1)c1ccc(-c2cnccn2)c2ccccc12` (stereo not shown) [Compound H0850, 1-methyl-1-(1-methylpiperidin-4-yl)-3-(1-(4-(pyrazin-2-yl)naphthalen-1-yl)ethyl)urea], the EC50 at GHSR1a [2] was above 30000 nM. The IC50 at GHSR1a [3] was found to be 1200 nM.
As to `CC(NC(=O)N(C)C1CCN(C)CC1)c1ccc(-c2nc(C3CC3)no2)c(Cl)c1Cl` (stereo not shown) [Compound H0851, 3-(1-(2,3-dichloro-4-(3-cyclopropyl-1,2,4-oxadiazol-5-yl)phenyl)ethyl)-1-methyl-1-(1-methylpiperidin-4-yl)urea], on GHSR1a [2], the EC50 came out at 6 nM and the Emax is on record as 3320. In addition, the IC50 on GHSR1a [3] is 11 nM.
The matching figures for `CC(C)C#Cc1ccc(C(C)NC(=O)N(C)C2CCN(C)CC2)c(Cl)c1Cl` (stereo not shown) [Compound H0852, 3-(1-(2,3-dichloro-4-(3-methylbut-1-yn-1-yl)phenyl)ethyl)-1-methyl-1-(1-methylpiperidin-4-yl)urea]: 18 nM, 1683 and 22 nM.
For the molecule `CC(NC(=O)C(C)N1CCN(C)CC1)c1ccc(-c2cnccn2)c(Cl)c1Cl` (stereo not shown) [Compound H0853, N-(1-(2,3-dichloro-4-(pyrazin-2-yl)phenyl)ethyl)-2-(4-methylpiperazin-1-yl)propanamide], at GHSR1a [2], the half-maximal effective concentration (EC50) is above 30000 nM. Moreover, the IC50 at GHSR1a [3] turned out to be 1500 nM.
As for `CC(NC(=O)N(C)C1CCN(C)CC1)c1ccc(-c2cnc(C3CC3)nc2)c(Cl)c1Cl` (stereo not shown) [Compound H0854, 3-(1-(2,3-dichloro-4-(2-cyclopropylpyrimidin-5-yl)phenyl)ethyl)-1-methyl-1-(1-methylpiperidin-4-yl)urea], on GHSR1a [2], the EC50 worked out at 24 nM and the Emax is reported as 3246. Moreover, the IC50 on GHSR1a [3] is 65 nM.
On to `CC(NC(=O)N(C)C1CCN(C)CC1)c1ccc(C#CC2CC2)c(Cl)c1F` (stereo not shown) [Compound H0855, 3-(1-(3-chloro-4-(cycloprropylethynyl)-2-fluorophenyl)ethyl)-1-methyl-1-(1-methylpiperidin-4-yl)urea], for which the EC50 on GHSR1a [2] was above 30000 nM. Besides, the IC50 at GHSR1a [3] stood at 256 nM.
In the case of `CC(NC(=O)N(C)C1CCN(C)CC1)c1ccc(-c2cnccn2)c(Cl)c1F` (stereo not shown) [Compound H0856, 3-(1-(3-chloro-2-fluoro-4-(pyrazin-2-yl)phenyl)ethyl)-1-methyl-1-(1-methylpiperidin-4-yl)urea], at GHSR1a [2], the EC50 was above 30000 nM. Further, the IC50 at GHSR1a [3] was 339 nM.
The matching figures for `CCC(NC(=O)N(C)C1CCN(C)C1)c1ccc(-c2cncc(F)n2)c(Cl)c1Cl` (stereo not shown) [Compound H0864, 3-(1-(2,3-dichloro-4-(6-fluoropyrazin-2-yl)phenyl)propyl)-1-methyl-1-(1-methylpyrrolidin-3-yl)urea]: above 30000 nM and 718 nM.
The matching figures for `CN1CCC(N(C)C(=O)NC(c2ccc(-c3cnccn3)c(Cl)c2Cl)C(F)(F)F)C1` (stereo not shown) [Compound H0871, 3-(1-(2,3-dichloro-4-(pyrazin-2-yl)phenyl)-2,2,2-trifluoroethyl)-1-methyl-1-(1-methylpyrrolidin-3-yl)urea]: above 30000 nM and 9 nM.
Take `CN1CCC(N(C)C(=O)NC(CC2CC2)c2ccc(-c3cnccn3)c(Cl)c2Cl)C1` (stereo not shown) [Compound H0874, 3-(2-cyclopropyl-1-(2,3-dichloro-4-(pyrazin-2-yl)phenyl)ethyl)-1-methyl-1-(1-methylpyrrolidin-3-yl)urea]: on GHSR1a [2], the EC50 was above 30000 nM. Besides, the IC50 on GHSR1a [3] amounted to 115 nM.
Turning to `CC(NC(=O)N(C)C1CCN(C)CC1)c1ccc(OC2CC2)c(Cl)c1Cl` (stereo not shown) [Compound H0875, 3-(1-(2,3-dichloro-4-cyclopropoxyphenyl)ethyl)-1-methyl-1-(1-methylpiperidin-4-yl)urea], at GHSR1a [2], the EC50 stood at 50 nM and the Emax is on record as 3751. Besides, the IC50 at GHSR1a [3] is 91 nM.
In the case of `CC(NC(=O)N(C)C1CCN(C)CC1)c1cnc(Cl)c(Cl)c1Cl` (stereo not shown) [Compound H0876, 1-methyl-1-(1-methylpiperidin-4-yl)-3-(1-(4,5,6-trichloropyridin-3-yl)ethyl)urea], at GHSR1a [2], the EC50 was above 30000 nM. Besides, the IC50 at GHSR1a [3] was 130 nM.
Consider `CC(NC(=O)N(C)C1CCN(C)CC1)c1cnc(-c2cnccn2)c(Cl)c1Cl` (stereo not shown) [Compound H0881, 3-(1-(4,5-dichloro-6-(pyrazin-2-yl)pyridin-3-yl)ethyl)-1-methyl-1-(1-methylpiperidin-4-yl)urea], for which the EC50 at GHSR1a [2] is above 30000 nM. On GHSR1a [3], the IC50 is 810 nM.
As to `CC(NC(=O)N(C)C1CCN(C)CC1)c1cnc(C#CC2CC2)c(Cl)c1Cl` (stereo not shown) [Compound H0884, 3-(1-(4,5-dichloro-6-(cyclopropylethynyl)pyridin-3-yl)ethyl)-1-methyl-1-(1-methylpiperidin-4-yl)urea], the EC50 on GHSR1a [2] is above 30000 nM. Moreover, the IC50 at GHSR1a [3] is 197 nM.
As to `CCC(NC(=O)N(CC)C1CCN(C)CC1)c1ccc(-c2cnccn2)c(Cl)c1Cl` (stereo not shown) [Compound H0896, 3-(1-(2,3-dichloro-4-(pyrazin-2-yl)phenyl)propyl)-1-ethyl-1-(1-methylpiperidin-4-yl)urea], the EC50 on GHSR1a [2] is above 30000 nM. The IC50 on GHSR1a [3] was found to be 7 nM.
Turning to `CC(NC(=O)N(C)C1CCN(C)CC1)c1ccc(-c2cncc(C(F)(F)F)n2)c(Cl)c1Cl` (stereo not shown) [Compound H0910, 3-(1-(2,3-dichloro-4-(6-(trifluoromethyl)pyrazin-2-yl)phenyl)ethyl)-1-methyl-1-(1-methylpiperidin-4-yl)urea], on GHSR1a [2], the EC50 was 19 nM and the Emax amounted to 1359. At GHSR1a [3], the IC50 came to 125 nM.
In the case of `COC(=O)C(NC(=O)N(C)C1CCN(C)CC1)c1ccc(-c2cnccn2)c(Cl)c1Cl` (stereo not shown) [Compound H0922, methyl 2-(2,3-dichloro-4-(pyrazin-2-yl)phenyl)-2-(3-methyl-3-(1-methylpiperidin-4-yl)ureido)acetate], the EC50 on GHSR1a [2] is above 30000 nM. The IC50 at GHSR1a [3] amounted to 2800 nM.
The matching figures for `CN1CCC(N(C)C(=O)NC(CO)c2ccc(-c3cnccn3)c(Cl)c2Cl)CC1` (stereo not shown) [Compound H0924, 3-(1-(2,3-dichloro-4-(pyrazin-2-yl)phenyl)-2-hydroxyethyl)-1-methyl-1-(1-methylpiperidin-4-yl)urea]: above 30000 nM and 300 nM.
